The text below walks through data of ChEMBL document CHEMBL4196011, “The lead optimization of the polyamine conjugate of flavonoid with a naphthalene motif: Synthesis and biological evaluation” (Eur J Med Chem, 2018).

Calls of active or inactive are those of the source. The rule behind the calls is not given here.

One data set has as its system HeLa. Nature of the data set: Antiproliferative activity against human HeLa cells after 48 hrs by MTT assay. The format is functional, cell-based. In general terms: Tetrazolium assays rely on reduction of a dye to a coloured formazan, in cell work by metabolically active cells.
Data set [1] has as its system Mus musculus. In words: Toxicity in Kunming mouse xenografted with […] H22 cells assessed as effect on liver weight index at 30 mg/kg, iv administered for 7 consecutive days. The following applies: in vivo. The data set is classed as organism-based.
Data set [2] deals with Mus musculus. Nature of the data set: Toxicity in Kunming mouse xenografted with […] H22 cells assessed as effect on kidney weight index at 30 mg/kg, iv administered for 7 consecutive days. The format is organism-based. The following applies: in vivo. On the technique in general: A xenograft is tissue or cells of one species grown in another, often human tumour cells in immunodeficient mice.

Data set [3] in a line: Drug localization in mitochondria of human HepG2 cells at 7.5 uM after 8 hrs by MitoTracker Green dye-based confocal fluorescence microscopic analysis. The data set is classed as ADME. The following applies: hepg2, 8 h.
Data set [4] deals with HepG2. Nature of the data set: Induction of apoptosis in human HepG2 cells assessed as early apoptotic cells at 2.5 uM after 8 hrs by Annexin V-FITC/propidium iodide staining-based flow cytometry (reference value: 1.29%). The data set is classed as functional. (In general: Flow cytometry measures light scatter and fluorescence of single cells or particles in a stream.)
In data set [5] the test system is HepG2. In words: Induction of apoptosis in human HepG2 cells assessed as necrotic cells at 2.5 uM after 8 hrs by Annexin V-FITC/propidium iodide staining-based flow cytometry (reference value: 0.40%). The data set is classed as functional.
For data set [6], the system named is HepG2. In words: Induction of apoptosis in human HepG2 cells assessed as early apoptotic cells at 5 uM after 8 hrs by Annexin V-FITC/propidium iodide staining-based flow cytometry (reference value: 1.29%). The format is functional.
Data set [7] concerns HepG2. In words: Induction of apoptosis in human HepG2 cells assessed as necrotic cells at 2.5 uM after 24 hrs by Annexin V-FITC/propidium iodide staining-based flow cytometry (reference value: 0.12%). The data set is classed as functional.
Data set [8] deals with HepG2. In words: Induction of apoptosis in human HepG2 cells assessed as viable cells at 2.5 uM after 24 hrs by Annexin V-FITC/propidium iodide staining-based flow cytometry (reference value: 96.97%). The data set is classed as functional. The following applies: HepG2, 24 h, read-out: Activity.
Data set [9] concerns HepG2. In words: Induction of apoptosis in human HepG2 cells assessed as necrotic cells at 5 uM after 24 hrs by Annexin V-FITC/propidium iodide staining-based flow cytometry (reference value: 0.12%). The format is functional.
The subject of data set [10] is HepG2. In words: Induction of apoptosis in human HepG2 cells assessed as viable cells at 5 uM after 24 hrs by Annexin V-FITC/propidium iodide staining-based flow cytometry (reference value: 96.97%). The following applies: HepG2, 24 h, read-out: Activity. The format is functional.
In data set [11] the test system is HepG2. Nature of the data set: Induction of apoptosis in human HepG2 cells assessed as late apoptotic cells at 2.5 uM after 36 hrs by Annexin V-FITC/propidium iodide staining-based flow cytometry (reference value: 1.08%). The format is functional.
The test system of data set [12] is HepG2. Nature of the data set: Induction of apoptosis in human HepG2 cells assessed as necrotic cells at 7.5 uM after 36 hrs by Annexin V-FITC/propidium iodide staining-based flow cytometry (reference value: 0.24%). The format is functional.
The subject of data set [13] is HepG2. In words: Induction of apoptosis in human HepG2 cells assessed as viable cells at 7.5 uM after 36 hrs by Annexin V-FITC/propidium iodide staining-based flow cytometry (reference value: 96.6%). The following applies: HepG2, 36 h, read-out: Activity. The format is functional.
Data set [14] relates to HepG2. Nature of the data set: Induction of apoptosis in human HepG2 cells assessed as late apoptotic cells at 2.5 uM after 48 hrs by Annexin V-FITC/propidium iodide staining-based flow cytometry (reference value: 0.95%). The data set is classed as functional.
The test system of data set [15] is HepG2. In words: Induction of apoptosis in human HepG2 cells assessed as necrotic cells at 5 uM after 48 hrs by Annexin V-FITC/propidium iodide staining-based flow cytometry (reference value: 0.08%). The data set is classed as functional.
For data set [16], the system named is HepG2. In words: Induction of apoptosis in human HepG2 cells assessed as increase in Bax protein expression after 48 hrs by immunofluorescence staining-based high content screening assay. The data set is classed as functional, cell-based.
Data set [17] deals with HepG2. Nature of the data set: Induction of autophagy in human HepG2 cells assessed as upregulation of beclin1 expression at 5 uM in presence of autophagy inhibitor 3-MA by Western blot analysis. The data set is classed as functional, cell-based.

Consider `COc1ccc2cc(-c3oc4c(CNCCCCN)cccc4c(=O)c3OC)ccc2c1Br.Cl.Cl`, for which, in the data set on HeLa, the IC50 (usually the concentration that inhibits the measured activity by half) came out at 5.9 µM. Further, the Activity entry in the data set on Mus musculus [1] is “Non-Toxic”; in the data set with Mus musculus [2], “Non-Toxic”; in the data set on HepG2 [4] it was 2.06%; with HepG2 [5] it was 0.3%; in the data set on HepG2 [6], 5.06%; in the data set on HepG2 [7], 0%. Moreover, the Activity with HepG2 [9] was 0.05%; in the data set with HepG2 [11], 5.89%; in the data set on HepG2 [12], 0.26%; in the data set on HepG2 [14] it was 3.85%; in the data set with HepG2 [15] it was 3.39%; in the data set on HepG2 [16], “Dose-dependent effect”. In addition, in data set [3], the Drug uptake result is “Active”. Moreover, the viability at 2.5 µM in the data set with HepG2 [8] amounted to 88.7%. For the same compound, the viability at 5 µM in the data set on HepG2 [10] came to 82.2%. Besides, the viability at 7.5 µM in the data set on HepG2 [13] stood at 64.7%. Moreover, the result in the data set on HepG2 [17] was inactive.
